Measurements reported in US20250221944A1, “COMPOSITION FOR PREVENTING OR TREATING MULTIPLE MYELOMA COMPRISING NOVEL CHROMANON COMPOUND AS ACTIVE INGREDIENT” (KBLUEBIO INC, priority 2022, published 2025).

Tests used:
[1] = initial acute toxicity evaluation (liver, kidney, cardiac markers); type: in vivo; details: rats, 5 mg/kg intravenously (femoral vein), blood 3 hours later
Method: As an initial toxicity evaluation of KBB-NX series synthetic compounds, KBB-NX-16 and KBB-NX-20 were injected intravenously into the femoral vein of rats at a dose of 5 mg/kg and blood was collected 3 hours later to test for markers of liver toxicity (marker ALT), nephrotoxicity (BUN, creatinine) and cardiotoxicity (CK-MB, myoglobin).

RPMI8226-GFP-FLUC cells = test: mouse model of multiple myeloma (RPMI8226-GFP-FLUC, tail vein); type: in vivo, NSG mice; details: 5 mg/kg intravenously, 2 days per week for 3 cycles, untreated group all died on day 50
Method: A total of 12 male NSG (NOD scid gamma) mice were used. The animals were housed in a semi-specific pathogen free (Semi-SPF) animal house at the Chonnam National University Center for Biomedical Science Convergence at a temperature of 20-24° C., humidity of 40-60%, and a 12-hour light/dark cycle, with 5 animals per cage. Sterile water and feed were provided ad libitum, and all experimental procedures were in accordance with the Animal welfare act and approved by the Institutional Animal Care and Use Committee of Chonnam National University (Approval No.: CNU IACUC-H-2020-36). […]
Mice were injected with RPMI8226-GFP-FLUC cells, and 8 days later, cancer formation was determined using an in vivo imaging system (IVIS) (NightOWL II LB983 NC100, Berthold, Germany). […]
Meanwhile, a multiple myeloma cell line (RPMI8226) was transfected with a puromycin resistance gene and a luciferase-GFP gene using a lentiviral vector at the EF1a promoter site, and the dynamics of MM cells in mice were identified and monitored by an in vivo bioluminescence imaging assay (FIG. 28). The transgenic multiple myeloma cell line, which can be monitored in vivo, was injected 1×10^7 cells/ml through the tail vein of 6-11 week old combined immunodeficient NSG mice to establish a mouse model of multiple myeloma. […]

Row | SMILES | cardiotoxicity (CK-MB, myoglobin) [1] | hepatotoxicity (marker ALT) [1] | nephrotoxicity (BUN, creatinine) [1] | survival after transplantation (RPMI8226-GFP-FLUC cells) [days]
1 | COc1cc(O)cc2c1C(=O)CC(c1ccc(C)s1)O2 (centres unmarked) [KBB-NX-20, 7-hydroxy-5-methoxy-2-(5-methylthiophene-2-yl)chroman-4-one] | did not exhibit significant | did not exhibit significant | did not exhibit significant | 
2 | COc1cc(O)c(CC=C(C)C)c2c1C(=O)CC(c1ccc(C(C)C)cc1)O2 (centres unmarked) [KBB-NX-16, 7-hydroxy-2-(4-isopropylphenyl)-5-methoxy-8-(3-methylbut-2-en-1-yl)chroman-4-one] | did not exhibit significant | did not exhibit significant | did not exhibit significant | 
3 | Nc1cccc2c1CN(C1CCC(=O)NC1=O)C2=O (centres unmarked) [lenalidomide, 3-(4-amino-1-oxoisoindolin-2-yl)piperidine-2,6-dione, reference compound] |  |  |  | 64
4 | COc1cc(O)cc(O)c1C(=O)/C=C/c1ccc(O)cc1 [KBB-NX-2, (E)-1-(2,4-dihydroxy-6-methoxyphenyl)-3-(4-hydroxyphenyl)prop-2-en-1-one] |  |  |  | 64
